Reference: US8278312B2, “Imidazo 1,2-a pyrimidine derivatives for the treatment of diseases such as diabetes” (Merck Patent Gesellschaft mit Beschränkter Haftung, priority 2007, dated 2012)

Experiments:
SGLT1 = molecular target: T1, SGLT1 (Homo sapiens, UniProt P13866); experiment: 14C-AMG uptake in BHK cells transfected with SGLT1 (96-well cell-based assay); details: 50 μM AMG, 37° C., 90 min
T1 construct: expressed in transfected cells
T1 sequence (P13866 1-664): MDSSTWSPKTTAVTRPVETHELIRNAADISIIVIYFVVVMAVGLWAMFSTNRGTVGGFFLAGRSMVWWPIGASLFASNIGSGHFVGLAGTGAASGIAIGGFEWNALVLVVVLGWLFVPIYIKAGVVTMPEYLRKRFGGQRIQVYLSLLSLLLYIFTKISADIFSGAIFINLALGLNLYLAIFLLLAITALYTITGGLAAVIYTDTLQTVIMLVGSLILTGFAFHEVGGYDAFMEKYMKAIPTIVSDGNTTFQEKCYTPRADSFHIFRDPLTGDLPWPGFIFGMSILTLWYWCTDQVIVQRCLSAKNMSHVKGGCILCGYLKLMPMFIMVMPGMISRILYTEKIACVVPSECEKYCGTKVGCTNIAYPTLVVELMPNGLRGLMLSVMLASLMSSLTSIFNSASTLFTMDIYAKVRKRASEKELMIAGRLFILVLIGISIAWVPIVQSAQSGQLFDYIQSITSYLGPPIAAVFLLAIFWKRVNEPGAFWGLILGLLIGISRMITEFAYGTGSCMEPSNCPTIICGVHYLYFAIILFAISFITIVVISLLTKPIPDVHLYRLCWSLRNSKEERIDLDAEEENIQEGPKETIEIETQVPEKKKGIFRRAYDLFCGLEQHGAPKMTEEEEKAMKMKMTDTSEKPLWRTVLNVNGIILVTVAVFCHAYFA
Text: (§1) The compounds can be tested for their SGLT inhibition properties by means of BHK cells expressing SGLT1 and SGLT2. The production of the cells and the testing can be carried out as described below.
To construct the SGLT1 expression vector (KL225), the SLC5A1 gene (homologous to NM_000343) was amplified from a cDNA library using standard PCR technology and cloned over NheI/XhoI sites into the pcDNA3.1 expression vector (Invitrogen) containing neomycin as a selection marker. In this vector, transcription uses the enhancer/promoter of human cytomegalovirus.
(§2) The final vector KL225 together with an additional vector containing a dihydrofolate reductase gene as a selection marker was introduced into cells. Transfection into BHK21 cells (ATCC CCL-10), cultivated in DMEM medium (GIBCO/BRL), supplemented with 10% foetal calf serum (FCS) and 20 mM glutamine, was carried out using calcium phosphate transfections according to Graham, F. L. and van der Ebb, A. J. (1973), Virology 52: 456 with 5-20 μg of uncut plasmids for 10^7 cells. Stable transfectants were selected in medium containing 1 mg/ml of G418 (GIBCO/BRL) and 20-5000 nM methotrexate as final concentration, where only cells which expressed the neomycin gene and overexpressed the dhfr gene were able to grow. After growth for 2-3 weeks, the cells were cloned (0.5 cells/well) and the clones were investigated for SGLT expression in radioactivity uptake tests. […]
(§3) A 96-well cell-based assay was developed and adapted to HTS requirements:
(§4) BHK cells (transfected with SGLT1 or SGLT2) were seeded into 96-well microtitre plates (Cultureplates, Perkin Elmer). After at least 24 h, medium was removed, and the cell layer was washed with assay buffer (140 mM NaCl, 2 mM KCl, 1 mM CaCl2, 1 mM MgCl2, 10 mM HEPES, 5 mM Tris, adjusted to pH 7.4 using 1 M KOH). After addition of 40 μl of assay buffer, 50 μl of AMG (50 μM for SGLT1 and 2 mM for SGLT2) in the presence or absence of compounds, the cells were incubated in a total volume of 100 μl at 37° C. for 90 min. Supernatant was removed by suction and discarded. Cells were washed and lysed by addition of 50 μl of water. After 10 min at room temperature, 200 μl of Micrsoscint 40 (Perkin Elmer) were added. The radioactivity was counted in a Topcount microplate scintillation counter (Perkin Elmer). The non-specific uptake was determined in sodium-free assay buffer (266 mM sucrose, 2 mM KCl, 1 mM CaCl2, 1 mM MgCl2, 10 mM HEPES, 5 mM Tris, adjusted to pH 7.4 using 1 M KOH).

SGLT2 = molecular target: T2, SGLT2 (Homo sapiens, UniProt P31639); experiment: 14C-AMG uptake in BHK cells transfected with SGLT2 (96-well cell-based assay); details: 2 mM AMG, 37° C., 90 min
T2 construct: expressed in transfected cells
T2 sequence (P31639 1-672): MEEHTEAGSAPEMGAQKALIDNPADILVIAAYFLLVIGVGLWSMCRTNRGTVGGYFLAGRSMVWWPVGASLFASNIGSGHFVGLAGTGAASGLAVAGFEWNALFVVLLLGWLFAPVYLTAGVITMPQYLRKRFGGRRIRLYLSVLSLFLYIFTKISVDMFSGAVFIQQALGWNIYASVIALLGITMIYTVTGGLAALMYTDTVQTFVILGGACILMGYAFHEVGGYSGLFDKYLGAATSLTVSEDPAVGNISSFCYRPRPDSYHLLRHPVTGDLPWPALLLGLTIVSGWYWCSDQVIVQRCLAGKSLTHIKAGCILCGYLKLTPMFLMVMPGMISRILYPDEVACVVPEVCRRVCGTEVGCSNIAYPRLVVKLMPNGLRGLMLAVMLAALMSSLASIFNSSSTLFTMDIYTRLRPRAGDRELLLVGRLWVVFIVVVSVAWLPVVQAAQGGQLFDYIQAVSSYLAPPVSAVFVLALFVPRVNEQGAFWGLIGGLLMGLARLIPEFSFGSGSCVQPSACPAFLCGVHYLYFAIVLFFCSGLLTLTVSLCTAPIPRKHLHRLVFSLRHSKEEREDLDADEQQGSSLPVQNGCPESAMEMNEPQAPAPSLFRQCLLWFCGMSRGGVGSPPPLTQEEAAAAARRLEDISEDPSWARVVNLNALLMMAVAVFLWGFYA
Text: as §1
To construct the SGLT2 expression vector (KL224), the SLC5A2 gene (homologous to NM_003041) was amplified from a cDNA library using standard PCR technology and cloned over NheI/XhoI sites into PCI-neo expression vector (Promega) containing neomycin as a selection marker. In this vector, transcription uses the enhancer/promoter of human cytomegalovirus and the SV40 polyadenylation signal.
as §2, with “KL224” for “KL225”
as §3, §4

Row | Compound | IC50 (SGLT1) [nM] | IC50 (SGLT2) [nM]
1 | CNc1nnc(-c2cc(OC)cc(OC)c2-c2nc3ncccn3c2Nc2c(Cl)ccc(C)c2Cl)o1 [Compound A23, (2,6-Dichloro-3-methylphenyl)-{2-[2,4-dimethoxy-6-(5-methylamino-1,3,4-oxadiazol-2-yl)phenyl]imidazo[1,2-a]-pyrimidin-3-yl}amine] | 10 to 1000 | 10 to 1000
2 | CNc1nnc(-c2ccccc2-c2nc3ncccn3c2Nc2c(C)noc2C)o1 [Compound A25, (3,5-Dimethylisoxazol-4-yl)-{2-[2-(5-methylamino-1,3,4-oxadiazol-2-yl)-phenyl]imidazo[1,2-a]pyrimidin-3-yl}-amine] | > 10000 | > 10000
3 | COC(=O)c1cccc(Cl)c1-c1nc2ncccn2c1Nc1c(C)cccc1C [Compound A20, Methyl 3-chloro-2-[3-(2,6-dimethyl-phenylamino)imidazo[1,2-a]pyrimidin-2-yl)benzoate] | > 10000 | 10 to 1000
4 | COc1cc(C)c(-c2nc3ncccn3c2Nc2c(C)cccc2C)c(OCC(N)=O)c1 [Compound A10, 2-{2-[3-(2,6-Dimethylphenylamino)-imidazo[1,2-a]pyrimidin-2-yl]-5-methoxy-3-methylphenoxy}acetamide] | > 10000 | 10 to 1000
5 | CNc1nnc(-c2cc(Cl)cc(Cl)c2-c2nc3ncccn3c2Nc2c(C)cccc2C)o1 [Compound A16, {2-[2,4-Dichloro-6-(5-methylamino-1,3,4-oxadiazol-2-yl)phenyl]imidazo[1,2-a]-pyrimidin-3-yl}-(2,6-dimethylphenyl)amine] | 1000 to 10000 | 10 to 1000

Results, then the compound that gave them:

Row | IC50 (SGLT1) [nM] | IC50 (SGLT2) [nM] | Compound
6 | 1000 to 10000 | 10 to 1000 | CCNc1nnc(-c2cc(OC)cc(OC)c2-c2nc3ncccn3c2Nc2c(Cl)cccc2Cl)o1 [Compound A5, (2,6-Dichlorophenyl)-{2-[2-(5-ethylamino-1,3,4-oxadiazol-2-yl)-4,6-dimethoxy-phenyl]imidazo[1,2-a]pyrimidin-3-yl}-amine]
7 | 1000 to 10000 | 10 to 1000 | CNc1nnc(-c2ccccc2-c2nc3ncccn3c2Nc2c(Cl)cc(F)cc2Cl)o1 [Compound A13, (2,6-Dichloro-4-fluorophenyl)-{2-[2-(5-methylamino-1,3,4-oxadiazol-2-yl)-phenyl]imidazo[1,2-a]pyrimidin-3-yl}-amine]
8 | 1000 to 10000 | 10 to 1000 | (2,6-Dichlorophenyl)-{2-[2-(5-methyl-amino-1,3,4-oxadiazol-2-yl)phenyl]-imidazo[1,2-a]pyrimidin-3-yl}amine [Compound A14]
